According to patent publication EP3036295B1, “OFFSET PRINTING INKS COMPRISING AN ISOSORBIDE FATTY ACID ESTER SOLVENT” (OLEON NV, priority 2013, dated 2015):

Experiments:
[1] = Surface tension, Du Noüy ring method; assay type: physicochemical
Protocol: The surface tension was measured using the Du Noüy ring method (http://www.kruss.de/en/theory/measurements/surface-tension/ring-method.html. The surface or interfacial tension is measured with the help of an optimally wettable ring suspended from a precision balance. A height-adjustable sample carrier is used to bring the liquid to be measured into contact with the probe. A force acts on the balance as soon as the probe touches the surface. If the length of the probe is known (circumference of ring or length of plate) the force measured can be used to calculate the interfacial or surface tension. A further requirement is that the probe must have a very high surface energy. This is why a platinum-iridium alloy is used for the ring and roughened platinum for the plate.
The liquid is raised until contact with the surface is registered. The sample is then lowered again so that the liquid film produced beneath the ring is stretched. As the film is stretched a maximum force is experienced; this is recorded in the measurement. At the maximum the force vector is exactly parallel to the direction of motion; at this moment the contact angle θ is 0°. In practice the distance is first increased until the area of maximum force has been passed through. The sample vessel containing the liquid is then moved back so that the maximum point is passed through a second time. The maximum force is only determined exactly on this return movement and used to calculate the tension. The calculation is made according to the following equation: σ = (Fmax −FV)/(L⋅cosθ) [formula] (σ =surface or interfacial tension; Fmax=maximum force; FV=weight of volume of liquid lifted; L=wetted length, θ=contact angle) The contact angle θ decreases as the extension increases and has the value 0° at the point of maximum force, this means that the term cos θ has the value 1.

[2] = Kauri butanol value (solvent power), ASTM D1133; assay type: physicochemical; settings: Table 2, comparison with conventional solvents
Source text: The "Kb value" is a measure of solvent power, and may be determined using the standardized test ASTM D1133. A high Kb value is an indication that the isosorbide ester is more capable in dissolving a wide range of resins of varying nature, and in higher concentrations, as compared to existing solvents used in offset printing inks. This is important as offset inks usually contain besides one or more pigments, approximately 40-65 wt. % of resin binders, for example rosin resins, maleic resins, hydrocarbon resins and alkyd resins, to ensure formation of a polymer film which binds the pigments or dyes together and provides resistance properties. Such resin binders are usually absent in inkjet printing inks. The offset printing ink may further comprise approximately 3 - 6 wt. % of additives, for example waxes, siccative agents and/or inhibitors. Without wanting to be bound by this theory, the applicants believe that this advantageous combination of properties, i.e. high wetting power of the pigments and high Kb value associated with good dissolution properties for the resin component present in the offset ink, must be attributed to the structure of the isosorbide moiety in the ester molecule. […]
In addition the inventors have observed that the Kb value may further be tuned by varying the nature of the carboxylic acid of the isosorbide ester and/or by varying the degree of esterification, in order to provide an ester with good solvent properties or an ester which functions much more as a diluent for the other components present in a formulation. […] Kauri resin is readily soluble in 1-butanol but is not soluble in many other solvents. […] Better solvents, for example toluene, may be added up to larger quantities before the solution becomes cloudy, and thus have a high Kauri butanol value. Weaker solvents like hexane may only be added in smaller quantities and will have a small Kauri butanol value. The Kauri butanol value (Kb value) is usually determined according to ASTM D1133 standardized test. […]

[3] = test system: bacteria, fungi and yeasts; settings: WO 2013/017257 A1; cited from earlier work

Molecule	Surface tension Du Noüy ring method [1] [mN/m]	Kauri butanol ASTM D 1133 [2]	antimicrobial activity [3]
C=C(C)[C@H]1CC=C(C)CC1 [D-limonene]	25	67	
Cc1ccccc1 [Toluene]	29	105	
O[C@@H]1CO[C@H]2[C@@H]1OC[C@@H]2O [isosorbide, Isosorbide]			isosorbide itself, nor the dicaprylate, exhibit any such activity
Xylene	29	90	
isosorbide dicaprylate			isosorbide itself, nor the dicaprylate, exhibit any such activity
isosorbide monocaprylate			responsible for the antimicrobial activity observed
